{"source": "patent US20200115353A1", "about": "“NEW COMPOUNDS INHIBITORS OF THE YAP/TAZ-TEAD INTERACTION AND THEIR USE IN THE TREATMENT OF MALIGNANT MESOTHELIOMA” (INVENTIVA, priority 2017, published 2020)"}
{"target": "T1, YAP-TEAD interaction (full length human TEAD1-Gal4 fusion, full length YAP mutant S127A, S397A) (UniProt P04386+P28347)", "T1 construct": "The TEAD1 construct was prepared by cloning the full length human TEAD1 cDNA; expressed in transfected cells; host or cells: HEK293 GripTite 293 MSR (Invitrogen R795-07), transiently transfected with pSG5_CMV plasmids", "T1 sequence (P04386+P28347 fused, stated change not applied)": "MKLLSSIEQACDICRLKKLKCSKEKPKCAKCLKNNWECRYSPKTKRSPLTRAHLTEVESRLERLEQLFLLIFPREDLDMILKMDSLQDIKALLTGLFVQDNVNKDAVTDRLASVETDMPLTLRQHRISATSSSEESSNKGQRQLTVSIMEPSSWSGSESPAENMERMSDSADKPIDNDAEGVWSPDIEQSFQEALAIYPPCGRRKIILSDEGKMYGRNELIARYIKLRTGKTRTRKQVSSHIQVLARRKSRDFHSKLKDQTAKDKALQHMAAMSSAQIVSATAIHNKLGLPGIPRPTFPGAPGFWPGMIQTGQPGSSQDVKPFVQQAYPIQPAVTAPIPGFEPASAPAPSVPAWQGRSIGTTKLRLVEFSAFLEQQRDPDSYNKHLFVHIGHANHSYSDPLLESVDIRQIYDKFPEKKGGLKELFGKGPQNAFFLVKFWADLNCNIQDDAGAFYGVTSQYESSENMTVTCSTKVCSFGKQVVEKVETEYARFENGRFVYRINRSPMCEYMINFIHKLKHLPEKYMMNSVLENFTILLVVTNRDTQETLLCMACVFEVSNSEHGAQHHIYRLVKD", "test": "Cell-based TEAD-GAL4 transactivation assay (luciferase reporter, HEK293)", "conditions": "HEK293 cells, compounds 0.1 μM to 30 μM, 24 h, concentration that inhibited the luciferase activity by 50%", "experimental": "(§1) To identify inhibitors of YAP-TEAD interaction, a transient transactivation assays was carried out into HEK293 cell line (HEK293 GripTite™ 293 MSR (Invitrogen R795-07)) using plasmids containing the full length TEAD1 sequences, the full length YAP mutant (S127A, S397A) and a luciferase gene reporter. All expression constructs were performed into pSG5 backbone plasmid in which the SV40 promoter was replaced by the CMV promoter. The TEAD1 construct was prepared by cloning the full length human TEAD1 cDNA in fusion with the Gal4 DNA Binding Domain (AA 1-148) into pSG5_CMV to create the TEAD1(FL)_hum_pSG5Gal4_CMV. The full length YAP mutant (S127A, S397A) was also cloned into pSG_5 CMV to create the YAP(FL)_hum_pSG5_[…]. The reporter plasmid GAL4(5×RE)_[…]_pGL3-Basic contains 5 copies of the GAL4 responsive element (5′-TCGGAGGACAGTACTCC-3′) upstream of the thymidine kinase (TK) promoter (−105/+56) inserted in a pGL3-Basic vector. To evaluate the selectivity of our compounds in blocking the YAP-TEAD interaction, a counter-screening protein-protein interaction transactivation assays was also established. Briefly, two other expression plasmids, the pBD-P53 which express the P53 (AA 72-390) in fusion with Gal4 and the pAD-SV40T which express the SV40 large T antigen (AA 84-708,AgT), were created. HEK293 cells were seeded at 5×10^4 cells/well in 96 well plates (assay plates) in DMEM medium containing 4.5 g/L D-glucose, 10% high inactivated (HI) fetal bovine serum 1% Glutamax, 1% non-essential amino acid and 1% sodium pyruvate and 0.5% penicillin/streptomycin 37° C. in a humidified atmosphere of 8% CO2. After 24 h, transfections are performed using Jet-PEI as transfectant (101B-010 Polyplus Transfection), according to the instructions of the manufacturer (N/P=10) and a ratio YAP/TEAD=10 (per well: 50 ng of YAP(FL), 5 ng of TEAD(FL) and 50 ng of reporter plasmid). Six hours after cell transfection, the plates (‘assay plate’) were washed with 100 μl PBS per well and cell were treated with compounds in semi-log from 0.1 μM to 30 μM or DMSO 0.5% as control in DMEM 4.5 g/L D-Glucose without phenol red, 0.3% BSA, 1% glutamax, 1% NEAA, 1% sodium pyruvate. Twenty-four hours later, the luciferase activity was determined after addition of 100 μl of Steady Glo™ luciferase assay system (Promega E2550) according to the manufacturer's directions. Luciferase activity in cell extracts is measured by reading luminescence using the Envision device.\n(§2) The cellular response was determined by fitting the concentration response curves using a 3-parameter curve fit equation and determining the concentration that inhibited the luciferase activity by 50%.", "units": {"IC50": "µM"}}
{"compound": "3,3-diethyl-5-[(E)-[isobutyl-(5-methoxy-1,1-dioxo-1,2-benzothiazol-3-yl)hydrazono]methyl]indolin-2-one [Ex 101]", "IC50": 5.29}
{"compound": "CN(/N=C/c1cccc(OCCO)c1)C1=NS(=O)(=O)c2ccccc21", "note": "[Ex 2, 2-[3-[(E)-[(1,1-dioxo-1,2-benzothiazol-3-yl)-methyl-hydrazono]methyl]phenoxy]ethanol]", "IC50": 1.11}
{"compound": "CN(/N=C/c1cccc(N(C)C)c1)C1=NS(=O)(=O)c2ccccc21", "note": "[Ex 4, N-[(E)-[3-(dimethylamino)phenyl]methyleneamino]-N-methyl-1,1-dioxo-1,2-benzothiazol-3-amine]", "IC50": 11.9}
{"compound": "CN(/N=C/c1cnc(N2CCCC2)s1)C1=NS(=O)(=O)c2ccccc21", "note": "[Ex 6, N-methyl-1,1-dioxo-N-[(E)-(2-pyrrolidin-1-ylthiazol-5-yl)methyleneamino]-1,2-benzothiazol-3-amine]", "IC50": 1.07}
{"compound": "CN(/N=C/c1cnc(-c2ccccc2)s1)C1=NS(=O)(=O)c2ccccc21", "note": "[Ex 8, N-methyl-1,1-dioxo-N-[(E)-(2-phenylthiazol-5-yl)methyleneamino]-1,2-benzothiazol-3-amine]", "IC50": 5.19}
{"compound": "COc1cc(/C=N/N(CCc2ccccn2)C2=NS(=O)(=O)c3ccccc32)ccc1F", "note": "[Ex 9, N-[(E)-(4-fluoro-3-methoxy-phenyl)methyleneamino]-1,1-dioxo-N-[2-(2-pyridyl)ethyl]-1,2-benzothiazol-3-amine]", "IC50": 3.94}
{"compound": "CCOc1cc(/C=N/N(C)C2=NS(=O)(=O)c3ccccc32)ccc1F", "note": "[Ex 11, N-[(E)-(3-ethoxy-4-fluoro-phenyl)methyleneamino]-N-methyl-1,1-dioxo-1,2-benzothiazol-3-amine]", "IC50": 2.85}
{"compound": "CCCOc1cc(/C=N/N(C)C2=NS(=O)(=O)c3ccccc32)ccc1F", "note": "[Ex 12, N-[(E)-(4-fluoro-3-propoxy-phenyl)methyleneamino]-N-methyl-1,1-dioxo-1,2-benzothiazol-3-amine]", "IC50": 1.56}
{"compound": "CC(C)Oc1cc(/C=N/N(C)C2=NS(=O)(=O)c3ccccc32)ccc1F", "note": "[Ex 13, N-[(E)-(4-fluoro-3-isopropoxy-phenyl)methyleneamino]-N-methyl-1,1-dioxo-1,2-benzothiazol-3-amine]", "IC50": 3.35}
{"compound": "CN(/N=C/c1ccc(F)c(C(N)=O)c1)C1=NS(=O)(=O)c2ccccc21", "note": "[Ex 17, 5-[(E)-[(1,1-dioxo-1,2-benzothiazol-3-yl)-methyl-hydrazono]methyl]-2-fluoro-benzamide]", "IC50": 2.75}
{"compound": "CC(C)n1c(=O)[nH]c2ccc(/C=N/N(C)C3=NS(=O)(=O)c4ccccc43)cc21", "note": "[Ex 26, 5-[(E)-[(1,1-dioxo-1,2-benzothiazol-3-yl)-methyl-hydrazono]methyl]-3-isopropyl-1H-benzimidazol-2-one]", "IC50": 0.62}
{"compound": "CN(/N=C/c1ccc2[nH]c(=O)n(C3CC3)c2c1)C1=NS(=O)(=O)c2ccccc21", "note": "[Ex 27, 3-cyclopropyl-5-[(E)-[(1,1-dioxo-1,2-benzothiazol-3-yl)-methyl-hydrazono]methyl]-1H-benzimidazol-2-one]", "IC50": 2.92}
{"compound": "COc1cc(/C=N/N(CC(C)C)C2=NS(=O)(=O)c3ccccc32)ccc1F", "note": "[Ex 40, N-[(E)-(4-fluoro-3-methoxy-phenyl)methyleneamino]-N-isobutyl-1,1-dioxo-1,2-benzothiazol-3-amine]", "IC50": 5.33}
{"compound": "CCOCCN(/N=C/c1ccc(F)c(OC)c1)C1=NS(=O)(=O)c2ccccc21", "note": "[Ex 43, N-(2-ethoxyethyl)-N-[(E)-(4-fluoro-3-methoxy-phenyl)methyleneamino]-1,1-dioxo-1,2-benzothiazol-3-amine]", "IC50": 2.78}
{"compound": "COc1cc(/C=N/N(C)C2=NS(=O)(=O)c3ccc([N+](=O)[O-])cc32)ccc1F", "note": "[Ex 47, N-[(E)-(4-fluoro-3-methoxy-phenyl)methyleneamino]-N-methyl-5-nitro-1,1-dioxo-1,2-benzothiazol-3-amine]", "IC50": 3.4}
{"compound": "COc1cc(/C=N/N(C)C2=NS(=O)(=O)c3cc(N)ccc32)ccc1F", "note": "[Ex 49, N3-[(E)-(4-fluoro-3-methoxy-phenyl)methyleneamino]-N3-methyl-1,1-dioxo-1,2-benzothiazole-3,6-diamine]", "IC50": 3.11}
{"compound": "COc1cc(/C=N/N(C)C2=NS(=O)(=O)c3ccc(OCCN(C)C)cc32)ccc1F", "note": "[Ex 57, 5-[2-(dimethylamino)ethoxy]-N-[(E)-(4-fluoro-3-methoxy-phenyl)methyleneamino]-N-methyl-1,1-dioxo-1,2-benzothiazol-3-amine]", "IC50": 0.53}
{"compound": "COc1cc(/C=N/N(C)C2=NS(=O)(=O)c3ccc(OCC(=O)N(C)C)cc32)ccc1F", "note": "[Ex 58, 2-[[3-[[(E)-(4-fluoro-3-methoxy-phenyl)methyleneamino]-methyl-amino]-1,1-dioxo-1,2-benzothiazol-5-yl]oxy]-N,N-dimethyl-acetamide]", "IC50": 3.42}
{"compound": "COc1cc(/C=N/N(C)C2=NS(=O)(=O)c3cc(B4OCC(C)(C)CO4)ccc32)ccc1F", "note": "[Ex 59, 6-(5,5-dimethyl-1,3,2-dioxaborinan-2-yl)-N-[(E)-(4-fluoro-3-methoxy-phenyl)methyleneamino]-N-methyl-1,1-dioxo-1,2-benzothiazol-3-amine]", "IC50": 3.55}
{"compound": "CCN(/N=C/c1ccc(F)c(OC)c1)C1=NS(=O)(=O)c2cc(B(O)O)ccc21", "note": "[Ex 62, [3-[ethyl-[(E)-(4-fluoro-3-methoxy-phenyl)methyleneamino]amino]-1,1-dioxo-1,2-benzothiazol-6-yl]boronic acid]", "IC50": 1.98}
{"compound": "COc1cc(/C=N/N(CC(C)C)C2=NS(=O)(=O)c3cc(B(O)O)ccc32)ccc1F", "note": "[Ex 63, [3-[[(E)-(4-fluoro-3-methoxy-phenyl)methyleneamino]-isobutyl-amino]-1,1-dioxo-1,2-benzothiazol-6-yl]boronic acid]", "IC50": 1.08}
{"compound": "CC(C)CN(/N=C/c1ccc2[nH]c(=O)n(C)c2c1)C1=NS(=O)(=O)c2cc(B(O)O)ccc21", "note": "[Ex 65, [3-[isobutyl-[(E)-(3-methyl-2-oxo-1H-benzimidazol-5-yl)methyleneamino]amino]-1,1-dioxo-1,2-benzothiazol-6-yl]boronic acid]", "IC50": 4.04}
{"compound": "COc1cc(/C=N/N(CC(C)C)C2=NS(=O)(=O)c3cc(B4OC(=O)CN(C)CC(=O)O4)ccc32)ccc1F", "note": "[Ex 69, 2-[3-[[(E)-(4-fluoro-3-methoxy-phenyl)methyleneamino]-isobutyl-amino]-1,1-dioxo-1,2-benzothiazol-6-yl]-6-methyl-1,3,6,2-dioxazaborocane-4,8-dione]", "IC50": 1.04}
{"compound": "Cc1ccc2c(c1)C(N(C)/N=C/c1ccc3[nH]c(=O)n(C)c3c1)=NS2(=O)=O", "note": "[Ex 70, 3-methyl-5-[(E)-[methyl-(5-methyl-1,1-dioxo-1,2-benzothiazol-3-yl) hydrazono]methyl]-1H-benzimidazol-2-one]", "IC50": 1.58}
{"compound": "COc1cc(/C=N/N(CC2CCC2)C2=NS(=O)(=O)c3cc(B(O)O)ccc32)ccc1F", "note": "[Ex 80, [3-[cyclobutylmethyl-[(E)-(4-fluoro-3-methoxy-phenyl)methyleneamino]amino]-1,1-dioxo-1,2-benzothiazol-6-yl]boronic acid]", "IC50": 1.07}
{"compound": "CCn1c(=O)[nH]c2ccc(/C=N/N(CC(C)C)C3=NS(=O)(=O)c4cc(B(O)O)ccc43)cc21", "note": "[Ex 84, [3-[[(E)-(3-ethyl-2-oxo-1H-benzimidazol-5-yl)methyleneamino]-isobutyl-amino]-1,1-dioxo-1,2-benzothiazol-6-yl]boronic acid]", "IC50": 1.67}
{"compound": "CSc1cc(/C=N/N(C)C2=NS(=O)(=O)c3ccccc32)ccc1F", "note": "[Ex 86, N-[(E)-(4-fluoro-3-methylsulfanyl-phenyl)methyleneamino]-N-methyl-1,1-dioxo-1,2-benzothiazol-3-amine]", "IC50": 1.31}
{"compound": "COc1cc(/C=N/N(CC(C)C)C2=NS(=O)(=O)c3cc(OCB(O)O)ccc32)ccc1F", "note": "[Ex 92, [3-[[(E)-(4-fluoro-3-methoxy-phenyl)methyleneamino]-isobutyl-amino]-1,1-dioxo-1,2-benzothiazol-6-yl]oxymethylboronic acid]", "IC50": 0.86}
{"target": "T1, YAP-TEAD interaction (full length human TEAD1-Gal4 fusion, full length YAP mutant S127A, S397A)", "test": "Cell-based TEAD-GAL4 transactivation assay (luciferase reporter, HEK293)", "conditions": "HEK293 cells, compounds 0.1 μM to 30 μM, 24 h, luciferase activity", "experimental": "as §1, §2", "units": {"Max Act. (%), TEAD-GAL4 Transactivation activity": "%"}}
{"compound": "3,3-diethyl-5-[(E)-[isobutyl-(5-methoxy-1,1-dioxo-1,2-benzothiazol-3-yl)hydrazono]methyl]indolin-2-one [Ex 101]", "Max Act. (%), TEAD-GAL4 Transactivation activity": 90}
